EC50 data for 5 compounds are collected here from patent US20130217652A1, “SULFINYLBENZYL AND THIOBENZYL DERIVATIVES AS SPHINGOSINE 1-PHOSPHATE (S1P) RECEPTOR MODULATORS” (ALLERGAN, INC., priority 2012, published 2013).

The structures appear in SMILES notation.

For the test, the target named is T1, human S1P1 receptor (Homo sapiens, UniProt P21453).
T1 construct: expressed in transfected cells; membranes used
T1 sequence (P21453 whole entry): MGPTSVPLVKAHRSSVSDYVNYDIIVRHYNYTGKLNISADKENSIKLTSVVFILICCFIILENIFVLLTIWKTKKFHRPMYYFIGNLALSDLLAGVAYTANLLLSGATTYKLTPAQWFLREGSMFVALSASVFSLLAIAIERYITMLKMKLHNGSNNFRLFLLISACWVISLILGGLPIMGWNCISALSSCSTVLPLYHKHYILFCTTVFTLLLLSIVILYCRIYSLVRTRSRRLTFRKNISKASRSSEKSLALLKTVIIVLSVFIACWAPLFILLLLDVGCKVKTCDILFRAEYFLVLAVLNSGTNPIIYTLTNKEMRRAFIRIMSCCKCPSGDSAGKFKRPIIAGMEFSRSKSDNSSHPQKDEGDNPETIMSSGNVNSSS
Nature of the test: GTP γ35S binding assay for S1P1 activity. As to conditions: membranes of cells stably expressing the S1P1 receptor, test compounds 0.08 to 5,000 nM, 30 min at 25° C. The test is classed as biochemical. Here is the method: Compounds were synthesized and tested for S1P1 activity using the GTP γ^35S binding assay. These compounds may be assessed for their ability to activate or block activation of the human S1P1 receptor in cells stably expressing the S1P1 receptor.
GTP γ^35S binding was measured in the medium containing (mM) HEPES 25, pH 7.4, MgCl2 10, NaCl 100, dithitothreitol 0.5, digitonin 0.003%, 0.2 nM GTP γ^35S, and 5 μg membrane protein in a volume of 150 μl. Test compounds were included in the concentration range from 0.08 to 5,000 nM unless indicated otherwise. Membranes were incubated with 100 μM 5′-adenylylimmidodiphosphate for 30 min, and subsequently with 10 μM GDP for 10 min on ice. Drug solutions and membrane were mixed, and then reactions were initiated by adding GTP γ^35S and continued for 30 min at 25° C. Reaction mixtures were filtered over Whatman GF/B filters under vacuum, and washed three times with 3 mL of ice-cold buffer (HEPES 25, pH 7.4, MgCl2 10 and NaCl 100). Filters were dried and mixed with scintillant, and counted for ^35S activity using a β-counter. Agonist-induced GTP γ^35S binding was obtained by subtracting that in the absence of agonist. Binding data were analyzed using a non-linear regression method. In case of antagonist assay, the reaction mixture contained 10 nM S1P in the presence of test antagonist at concentrations ranging from 0.08 to 5000 nM. […] Activity potency: S1P1 receptor from GTP γ^35S: nM, (EC50),
Background: GTPγS is a poorly hydrolysed GTP analogue; its binding reports G protein activation.
One may read the EC50 as the concentration that produces a half-maximal response. Lower therefore signals a more potent agent. In turn, `Cc1ccc(CC(CCCC[S+]([O-])c2ccc(CNCCC(=O)O)cc2)c2cccc(Cl)c2)cc1C` (centres unmarked) [Compound 2, 3-[(4-{[5-(3-chlorophenyl)-6-(3,4-dimethylphenyl)hexyl]sulfinyl}benzyl)amino]propanoic acid] yielded an EC50 of 631 nM. This counts as sub-micromolar. In the case of `Cc1ccc(CC(CCCSc2ccc(CNCCCP(=O)(O)O)cc2)c2cc(F)cc(F)c2)cc1C` (centres unmarked) [Compound 5, {3-[(4-{[4-(3,5-difluorophenyl)-5-(3,4-dimethylphenyl)pentyl]thio}benzyl)amino]propyl}phosphonic acid] it was 2.65 nM; in that of `Cc1ccc(CC(CCCCSc2ccc(CNCCC(=O)O)cc2)c2cccc(Cl)c2)cc1C` (centres unmarked) [Compound 1, 3-[(4-{[5-(3-chlorophenyl)-6-(3,4-dimethylphenyl)hexyl]thio}benzyl)amino]propanoic acid], 159 nM. As for `Cc1ccc(CC(CCC[S+]([O-])c2ccc(CNCCC(=O)O)cc2)c2cccc(Cl)c2)cc1C` (centres unmarked) [Compound 3, 3-[(4-{[4-(3-chlorophenyl)-5-(3,4-dimethylphenyl)pentyl]sulfinyl}benzyl)amino]propanoic acid], the concentration for a half-maximal effect (EC50) is 81.7 nM. The result for `Cc1ccc(CC(CCCSc2ccc(CNCCCP(=O)(O)O)cc2)c2cccc(Cl)c2)cc1C` (centres unmarked) [Compound 6, {3-[(4-{[4-(3-chlorophenyl)-5-(3,4-dimethylphenyl)pentyl]thio}benzyl)amino]propyl}phosphonic acid] reads 0.76 nM.
